Results: US20060128729A1, “Novel bicyclic heterocyclic compounds, process for their preparation and compositions containing them” (priority 2004, published 2006)
Where a name gives a salt, the structure may show the parent alone. Read-outs that look alike come from different tables or passages of the source.

What was measured:
[1] = tested on: MCP-1 (monocyte chemoattractant protein 1); test: MCP-1 ELISA on supernatants of stimulated human aortic endothelial cells; assay type: cell-based; conditions: HAECs treated with TNFα (0.05 ng/ml) or glycated human serum albumin (300 μg/ml) for 18-24 h, read-out: IC50 in MCP-1 enzyme-linked immunosorbent assay
Method: (§1) For inflammation assays, human aortic endothelial cells (HAECS) in 96 well plates were washed once with treatment medium (basal medium containing 1% FBS). Cells were treated with an inflammatory agent such as TNFα (0.05 ng/ml) or glycated human serum albumin (US Biologicals) as source of advanced glycation end products (AGEs) (300 μg/ml) for 18-24 h in the presence or absence of specified amount of compound. Cell supernatants were collected and used for the estimation of MCP-1 (monocyte chemoattractant protein 1) or IL-6 (interleukin-6) by ELISA. Cell layers were washed and used for determining the levels of vascular cell adhesion molecule-1 (VCAM-1).
MCP-1 ELISA was carried out using Quantikine Human MCP-1 kit as described by the manufacturer (R&D Systems, Inc.). Mouse anti-human MCP-1 was used as the capture antibody and HRP (horse radish peroxidase)-conjugated goat anti-human MCP-1 antibody was used as detection antibody. Culture medium was incubated with the capture antibody (in 96-well plate) for 2 h at room temperature. Wells were washed three times with wash buffer (0.05% Tween-20 in PBS) followed by incubation with detection antibody for 2 h at room temperature. Color development was read at […] in a microplate reader.

[2] = tested on: human aortic smooth muscle cells; test: Smooth muscle cell proliferation assay (radiolabeled thymidine incorporation or CellTiter AQ); assay type: cell-based; conditions: human aortic SMC; for inhibition at 1 µM: 24 h post treatment; for IC50: 24 h post treatment in serum-containing growth medium, read-out: Activity: concentration giving 50% inhibition of smooth muscle cell proliferation
Method: Primary cultures of human aortic smooth muscle cells were obtained from Clonetics. SMC were initially grown in T-75 flasks prior to seeding in 96 well plates. The 96-well plates were seeded with 4000 cells/well. The following day cells were washed with serum free medium and left in serum free media for 24 hours for serum starvation. The next day cells received growth medium containing serum with or without compound. 24 h post treatment cell proliferation was assayed either assessing the incorporation of radiolabeled thymidine to DNA or using a non-radioactive cell proliferation kit from Promega (CellTiter AQ).

[3] = tested on: VCAM-1 (vascular cell adhesion molecule-1); test: VCAM-1 ELISA on cell layers of stimulated human aortic endothelial cells; assay type: cell-based; conditions: HAECs treated with TNFα (0.05 ng/ml) or glycated human serum albumin (300 μg/ml) for 18-24 h, read-out: IC50 in VCAM-1 enzyme-linked immunosorbent assay
Method: as §1
The cells were fixed cells with 100% methanol for 10 min at room temperature. The methanol was removed and the plate was air-dried. 100 ul of 1:1000 diluted primary antibody (polyclonal goat anti-human VCAM-1—R&D Systems #BBA19) was then added and incubated for 2 h at 37 C. The cells were washed with PBS and 100 ul of 1:5000 dilution of secondary antibody (rabbit anti-goat IgG-HRP—Zymed #81-1620) was added and incubated for 1 h at room temperature. Cells were washed and 100 ul of substrate solution (R&D Systems# DY999) was added and incubated for 20 min in the dark at room temp. 50 μl of stop solution (2N sulfuric acid) was added to the wells and absorbency at 450 nm was noted.

With CCCc1nn(C)c2c(Nc3ccc(OC)c(F)c3)nc(-c3cccs3)nc12.Cl [E 10, (3-fluoro-4-methoxy-phenyl)-(1-methyl-3-propyl-5-thiophen-2-yl-1H-pyrazolo[4,3-d]pyrimidin-7-yl) -amine hydrochloride] as the compound, how does the melting point read?
The melting point was 238 to 242 °C.

What about the IC50 ([1]; Homo sapiens, Endothelial cell) of the same compound?
Its IC50 is 1600 nM.

What about the inhibition at 1 µM [2] of the same compound?
Its inhibition at 1 µM is 96%.

What about the IC50 ([3]; Homo sapiens, Endothelial cell) of the same compound?
Its IC50 is 11800 nM.

For CNC(=O)c1cccc(Nc2nc(-c3ccc(F)cc3)nc3c(C)nn(C)c23)c1.Cl [E 50, 3-[5-(4-fluoro-phenyl)-1,3-dimethyl-1H-pyrazolo[4,3-d]pyrimidin-7-ylamino]-N-methyl-benzamide hydrochloride], which melting point is on record?
The melting point was 272 to 274 °C.

And the IC50 ([1]; Homo sapiens, Endothelial cell)?
The IC50 was 420 nM.

What about the IC50 ([3]; Homo sapiens, Endothelial cell) of the same compound?
Its IC50 is 1680 nM.

For CCCc1nn(C)c2c(Nc3ccc(OC)c(F)c3)nc(-c3ccc(F)cc3)nc12 [E 86, (3-fluoro-4-methoxy-phenyl)-[5-(4-fluoro-phenyl)-1-methyl-3-propyl-1H-pyrazolo[4,3-d]pyrimidin-7-yl]-amine], which IC50 [1] is on record?
The IC50 was 9000 nM.

What about the IC50 [3] of the same compound?
The IC50 was 12700 nM.

With Cc1nn(C)c2c(Nc3ccc(C(F)(F)F)cc3)nc(-c3ccc(F)cc3)nc12.Cl [E 39, [5-(4-fluoro-phenyl)-1,3-dimethyl-1H-pyrazolo[4,3-d]pyrimidin-7-yl]-(4-trifluoromethyl-phenyl)-amine hydrochloride] as the compound, how does the melting point read?
The melting point was 250 to 252 °C.

What about the IC50 [2] of the same compound?
Its IC50 is 330 nM.

For COc1ccc(Nc2nc(-c3ccccc3)nc3c(C)nn(C)c23)cc1Cl [E 13, (3-chloro-4-methoxy-phenyl)-(1,3-dimethyl-5-phenyl-1H-pyrazolo[4,3-d]pyrimidin-7-yl)-amine hydrochloride], which IC50 ([1]; Homo sapiens, Endothelial cell) is on record?
The IC50 was 1500 nM.

And the IC50 [2]?
Its IC50 is 380 nM.

Which results are given for COc1ccc(Nc2nc(-c3ccc(F)cc3)cc3c2c(C)nn3C)cc1Cl [E 72, (3-chloro-4-methoxy-phenyl)-[6-(4-fluoro-phenyl)-1,3-dimethyl-1H-pyrazolo[4,3-c]pyridin-4-yl]-amine hydrochloride]?
IC50 ([1]; Homo sapiens, Endothelial cell): 3800 nM; IC50 [2]: 1300 nM; IC50 ([3]; Homo sapiens, Endothelial cell): 14000 nM

For CCCc1nn(C)c2c(Nc3ccc(OC(F)(F)F)cc3)nc(-c3ccc(F)cc3)nc12.Cl [E 37, [5-(4-fluoro-phenyl)-1-methyl-3-propyl-1H-pyrazolo[4,3-d]pyrimidin-7-yl]-(4-trifluoromethoxy-phenyl)-amine hydrochloride], which melting point is on record?
The melting point was 230 to 232 °C.

What about the IC50 [2] of the same compound?
The IC50 was 500 nM.

For CCCc1nn(C)c2c(Nc3ccc4c(c3)OCO4)nc(-c3cccs3)nc12 [E 52, benzo[1,3]dioxol-5-yl-(1-methyl-3-propyl-5-thiophen-2-yl-1H-pyrazolo[4,3-d]pyrimidin-7-yl)-amine hydrochloride], which IC50 ([1]; Homo sapiens, Endothelial cell) is on record?
Its IC50 is 8700 nM.

And the IC50 [2]?
Its IC50 is 500 nM.

And the IC50 ([3]; Homo sapiens, Endothelial cell)?
Its IC50 is 10900 nM.

Which results are given for COc1ccc(Nc2nc(-c3ccccc3)nc3c(C)nn(C)c23)cc1F [E 14, (1,3-dimethyl-5-phenyl-1H-pyrazolo[4,3-d]pyrimidin-7-yl)-(3-fluoro-4-methoxy-phenyl)-amine hydrochloride]?
IC50 ([1]; Homo sapiens, Endothelial cell): 4000 nM; IC50 [2]: 430 nM

For COc1ccc(Nc2nc(-c3ccc(F)cc3)nc3c2cnn3-c2ccccc2)cc1F [E 80, (3-fluoro-4-methoxy phenyl)-[6-(4-fluoro-phenyl)-1-phenyl-1H-pyrazolo[3,4-d]-pyrimidin-4yl]amine hydrochloride], which IC50 ([1]; Homo sapiens, Endothelial cell) is on record?
Its IC50 is 5400 nM.

What about the IC50 [2] of the same compound?
The IC50 was 460 nM.

And the IC50 ([3]; Homo sapiens, Endothelial cell)?
Its IC50 is 11100 nM.

Which melting point does the source give for Cc1nn(C)c2c(Nc3ccc4c(c3)OCO4)nc(-c3ccc(F)cc3)nc12.Cl [E 19, benzo[1,3]dioxol-5-yl-[5-(4-fluoro-phenyl)-1,3-dimethyl-1H-pyrazolo[4,3-d]pyrimidin-7-yl]-amine hydrochloride] here?
The melting point was 230 to 232 °C.

What about the IC50 [2] of the same compound?
Its IC50 is 450 nM.

Which IC50 ([1]; Homo sapiens, Endothelial cell) does the source give for Cc1nn(C)c2cc(-c3ccc(F)cc3)nc(Nc3ccc(S(C)(=O)=O)cc3)c12 [E 100, [6-(4-fluoro-phenyl)-1,3-dimethyl-1H-pyrazolo[4,3-c]pyridin-4-yl]-(4-methanesulfonyl-phenyl)-amine] here?
Its IC50 is 480 nM.

For COc1ccc(Nc2nc(-c3ccc(F)cc3)cc3c2c(C)nn3C)cc1F [E 73, (3-fluoro-4-methoxy-phenyl)-[6-(4-fluoro-phenyl)-1,3-dimethyl-1H-pyrazolo[4,3-c]pyridin-4-yl]-amine hydrochloride], which IC50 ([1]; Homo sapiens, Endothelial cell) is on record?
The IC50 was 4100 nM.

What about the IC50 [2] of the same compound?
Its IC50 is 900 nM.

And the IC50 ([3]; Homo sapiens, Endothelial cell)?
Its IC50 is 13700 nM.

Which melting point does the source give for Cc1nn(C)c2c(Nc3ccc(S(=O)(=O)N(C)C)cc3)nc(-c3ccc(F)cc3)nc12.Cl [E 43, 4-[5-(4-fluoro-phenyl)-1,3-dimethyl-1H-pyrazolo[4,3-d]pyrimidin-7-ylamino]-N,N-dimethyl-benzenesulfonamide hydrochloride] here?
Its melting point is 254 to 256 °C.

And the IC50 [2]?
Its IC50 is 930 nM.

With Cc1nn(C)c2c(Nc3cccc(C(N)=O)c3)nc(-c3ccc(F)cc3)nc12.Cl [E 49, 3-[5-(4-fluoro-phenyl)-1,3-dimethyl-1H-pyrazolo[4,3-d]pyrimidin-7-ylamino]-benzamide hydrochloride] as the compound, how does the melting point read?
Its melting point is 258 to 260 °C.

And the IC50 ([1]; Homo sapiens, Endothelial cell)?
The IC50 was 340 nM.

What about the IC50 ([3]; Homo sapiens, Endothelial cell) of the same compound?
Its IC50 is 610 nM.

With COc1ccc(Nc2nc(-c3cccs3)nc3c(C)nn(C)c23)cc1F.Cl [E 30, (1,3-dimethyl-5-thiophen-2-yl-1H-pyrazolo[4,3-d]pyrimidin-7-yl)-(3-fluoro-4-methoxy-phenyl)-amine hydrochloride] as the compound, how does the melting point read?
Its melting point is 236 to 238 °C.

And the IC50 [2]?
The IC50 was 1450 nM.

For COc1ccc(Nc2nc(-c3ccc(F)cc3)nc3c(C)nn(C)c23)cc1F.Cl [E 16, (3-fluoro-4-methoxy-phenyl)-[5-(4-fluoro-phenyl)-1,3-dimethyl-1H-pyrazolo[4,3-d]pyrimidin-7-yl]-amine hydrochloride], which melting point is on record?
The melting point was 262 °C.

And the inhibition at 1 µM [2]?
Its inhibition at 1 µM is 100%.

With Cc1nn(C)c2c(Nc3ccc(S(N)(=O)=O)cc3)nc(-c3ccccc3)nc12 [E 44, 4-(1,3-dimethyl-5-phenyl-1H-pyrazolo[4,3-d]pyrimidin-7-ylamino)-benzenesulfonamide hydrochloride] as the compound, how does the IC50 [2] read?
The IC50 was 2500 nM.

With Cc1nn(C)c2c(Nc3ccc4c(c3)OCO4)nc(-c3cccs3)nc12 [E 33, benzo[1,3]dioxol-5-yl-(1,3-dimethyl-5-thiophen-2-yl-1H-pyrazolo[4,3-d]pyrimidin-7-yl)-amine hydrochloride] as the compound, how does the IC50 [2] read?
The IC50 was 540 nM.

Which results are given for COc1ccc(Nc2nc(-c3ccc(F)cc3)nc3c(C)nn(C)c23)cc1Cl.Cl [E 17, (3-chloro-4-methoxy-phenyl)-[5-(4-fluoro-phenyl)-1,3-dimethyl-1H-pyrazolo[4,3-d]pyrimidin-7-yl]-amine hydrochloride]?
melting point: > 240 °C; inhibition at 1 µM [2]: 100%

Which melting point does the source give for Cc1nn(C)c2c(Nc3ccc(OC(F)(F)F)cc3)nc(-c3ccccc3)nc12.Cl [E 38, (1,3-dimethyl-5-phenyl-1H-pyrazolo[4,3-d]pyrimidin-7-yl)-(4-trifluoromethoxy-phenyl)-amine hydrochloride] here?
The melting point was 174 to 176 °C.

What about the IC50 [2] of the same compound?
Its IC50 is 230 nM.

Which results are given for COc1ccc(Nc2nc(-c3cccs3)nc3c(C)nn(C)c23)cc1Cl.Cl [E 32, (3-chloro-4-methoxy-phenyl)-(1,3-dimethyl-5-thiophen-2-yl-1H-pyrazolo[4,3-d]pyrimidin-7-yl)-amine hydrochloride]?
melting point: > 240 °C; IC50 [2]: 940 nM

For Cc1nn(C)c2c(Nc3ccc(S(C)(=O)=O)cc3)nc(-c3ccc(F)cc3)nc12 [E 96, [5-(4-fluoro-phenyl)-1,3-dimethyl-1H-pyrazolo[4,3-d]pyrimidin-7-yl]-(4-methanesulfonyl-phenyl)-amine], which melting point is on record?
Its melting point is 216 to 218 °C.

What about the IC50 [2] of the same compound?
Its IC50 is 1370 nM.

For Cc1nn(C)c2c(Nc3ccc(O)c(Cl)c3)nc(-c3cccs3)nc12.Cl, which melting point is on record?
Its melting point is over 240 °C.

For Cc1nn(C)c2c(Nc3ccc(Cl)nc3)nc(-c3ccc(F)cc3)nc12.Cl, which melting point is on record?
Its melting point is 248 to 250 °C.
